In US12390441B2, “Immunomodulating o-het/aryl azalides” (Zoetis Services LLC, priority 2020, dated 2025):
Marks after values point to notes of the source that are not given here.

Legend:
[1] = system: BRD pathogens, M. haemolytica and P. multocida; assay: In-vitro MIC model, BRD pathogen screening panel; assay type: cell-based, Mannheimia haemolytica; Pasteurella multocida; details: for MIC flag at the example number (Table E) / MIC flag at the example number (Table A): at least one BRD strain; for MIC for at least one BRD strain (asterisk on Ex#): Table F, Formula (1-A1a) compounds
TNF-α = assay: Whole blood assay, LPS stimulation, MSD cytokine detection; assay type: cell-based; details: fresh whole bovine blood
IL-1β = assay: as above; assay type: cell-based, bovine; details: fresh whole bovine blood, LPS stimulation; drug concentration giving overstimulation (OS) of IL-1β
IL-6 = assay: as above; assay type: cell-based; details: fresh whole bovine blood

SMILES | MIC flag at the example number (Table E) [1] | other results
CCCNC[C@]1(O)[C@H](C)O[C@@H](O[C@H]2[C@H](C)[C@@H](O[C@@H]3O[C@H](C)C[C@H](NC)[C@H]3Oc3ccc(F)cc3C)[C@](C)(O)C[C@@H](C)CN[C@H](C)[C@@H](O)[C@](C)(O)[C@@H](CC)OC(=O)[C@@H]2C)C[C@@]1(C)OC [Example E-23] | E-23* (MIC ≤ 64 μg/mL for at least one BRD strain) | 
CC[C@H]1OC(=O)[C@H](C)[C@@H](O[C@H]2C[C@@](C)(OC)[C@@H](O)[C@H](C)O2)[C@H](C)[C@@H](O[C@@H]2O[C@H](C)C[C@H](NC)[C@H]2Oc2ccc3ncccc3c2)[C@](C)(O)C[C@@H](C)CN(C)[C@H](C)[C@@H](O)[C@]1(C)O [Example A-8] |  | MIC flag at the example number (Table A) [1]: A-8* (MIC ≤ 64 μg/mL for at least one BRD strain)
CCCNC[C@]1(O)[C@H](C)O[C@@H](O[C@H]2[C@H](C)[C@@H](O[C@@H]3O[C@H](C)C[C@H](NC)[C@H]3Oc3ccc(Cl)cc3)[C@](C)(O)C[C@@H](C)CN[C@H](C)[C@@H](O)[C@](C)(O)[C@@H](CC)OC(=O)[C@@H]2C)C[C@@]1(C)OC [Example E-106] | E-106* (MIC ≤ 64 μg/mL for at least one BRD strain) | 
CCCNC[C@]1(O)[C@H](C)O[C@@H](O[C@H]2[C@H](C)[C@@H](O[C@@H]3O[C@H](C)C[C@H](NC)[C@H]3Oc3ccc(C)cc3)[C@](C)(O)C[C@@H](C)CN[C@H](C)[C@@H](O)[C@](C)(O)[C@@H](CC)OC(=O)[C@@H]2C)C[C@@]1(C)OC [Example E-103] | E-103* (MIC ≤ 64 μg/mL for at least one BRD strain) | 
CC[C@H]1OC(=O)[C@H](C)[C@@H](O[C@H]2C[C@@](C)(OC)[C@@H](O)[C@H](C)O2)[C@H](C)[C@@H](O[C@@H]2O[C@H](C)C[C@H](NC)[C@H]2Oc2ccc(OC)nc2OC)[C@](C)(O)C[C@@H](C)CN(C)[C@H](C)[C@@H](O)[C@]1(C)O [Example A-42] |  | MIC flag at the example number (Table A) [1]: A-42* (MIC ≤ 64 μg/mL for at least one BRD strain)
CCCNC[C@]1(O)[C@H](C)O[C@@H](O[C@H]2[C@H](C)[C@@H](O[C@@H]3O[C@H](C)C[C@H](NC)[C@H]3Oc3ccccc3S(C)(=O)=O)[C@](C)(O)C[C@@H](C)CN[C@H](C)[C@@H](O)[C@](C)(O)[C@@H](CC)OC(=O)[C@@H]2C)C[C@@]1(C)OC [Example E-66] | E-66* (MIC ≤ 64 μg/mL for at least one BRD strain) | 
CCCNC[C@]1(O)[C@H](C)O[C@@H](O[C@H]2[C@H](C)[C@@H](O[C@@H]3O[C@H](C)C[C@H](NC)[C@H]3Oc3cc(OC)ccc3F)[C@](C)(O)C[C@@H](C)CN[C@H](C)[C@@H](O)[C@](C)(O)[C@@H](CC)OC(=O)[C@@H]2C)C[C@@]1(C)OC [Example E-18] | E-18* (MIC ≤ 64 μg/mL for at least one BRD strain) | 
CC[C@H]1OC(=O)[C@H](C)[C@@H](O[C@H]2C[C@@](C)(OC)[C@@H](O)[C@H](C)O2)[C@H](C)[C@@H](O[C@@H]2O[C@H](C)C[C@H](N(C)C)[C@H]2Oc2ccccc2OC)[C@](C)(O)C[C@@H](C)CN(C)[C@H](C)[C@@H](O)[C@]1(C)O [Example A-46] |  | MIC flag at the example number (Table A) [1]: A-46* (MIC ≤ 64 μg/mL for at least one BRD strain)
CCCNC[C@]1(O)[C@H](C)O[C@@H](O[C@H]2[C@H](C)[C@@H](O[C@@H]3O[C@H](C)C[C@H](NC)[C@H]3Oc3ncccn3)[C@](C)(O)C[C@@H](C)CN[C@H](C)[C@@H](O)[C@](C)(O)[C@@H](CC)OC(=O)[C@@H]2C)C[C@@]1(C)OC [Example E-33] | E-33* (MIC ≤ 64 μg/mL for at least one BRD strain) | 
CCCNC[C@]1(O)[C@H](C)O[C@@H](O[C@H]2[C@H](C)[C@@H](O[C@@H]3O[C@H](C)C[C@H](N(C)C)[C@H]3Oc3ccc(OC)cc3OC)[C@](C)(O)C[C@@H](C)CN[C@H](C)[C@@H](O)[C@](C)(O)[C@@H](CC)OC(=O)[C@@H]2C)C[C@@]1(C)OC [Example E-97] | E-97* (MIC ≤ 64 μg/mL for at least one BRD strain) | 
CC[C@H]1OC(=O)[C@H](C)[C@@H](O[C@H]2C[C@@](C)(OC)[C@@H](O)[C@H](C)O2)[C@H](C)[C@@H](O[C@@H]2O[C@H](C)C[C@H](N(C)C)[C@H]2Oc2cnc(OC)nc2)[C@](C)(O)C[C@@H](C)CN(C)[C@H](C)[C@@H](O)[C@]1(C)O [Example A-7] |  | MIC flag at the example number (Table A) [1]: A-7* (MIC ≤ 64 μg/mL for at least one BRD strain)
CC[C@H]1OC(=O)[C@H](C)[C@@H](O[C@H]2C[C@@](C)(OC)[C@@H](O)[C@H](C)O2)[C@H](C)[C@@H](O[C@@H]2O[C@H](C)C[C@H](N(C)C)[C@H]2Oc2ccccc2C#N)[C@](C)(O)C[C@@H](C)CN(C)[C@H](C)[C@@H](O)[C@]1(C)O [Example A-3] |  | MIC flag at the example number (Table A) [1]: A-3* (MIC ≤ 64 μg/mL for at least one BRD strain)
CCCN(C[C@]1(O)[C@H](C)O[C@@H](O[C@H]2[C@H](C)[C@@H](O[C@@H]3O[C@H](C)C[C@H](NC)[C@H]3Oc3ncc(Cl)cn3)[C@](C)(O)C[C@@H](C)CN[C@H](C)[C@@H](O)[C@](C)(O)[C@@H](CC)OC(=O)[C@@H]2C)C[C@@]1(C)OC)c1ncc(Cl)cn1 [Example E-119] | E-119* (MIC ≤ 64 μg/mL for at least one BRD strain) | 
CCCNC[C@]1(O)[C@H](C)O[C@@H](O[C@H]2[C@H](C)[C@@H](O[C@@H]3O[C@H](C)C[C@H](NC)[C@H]3Oc3cccc(Cl)c3)[C@](C)(O)C[C@@H](C)CN[C@H](C)[C@@H](O)[C@](C)(O)[C@@H](CC)OC(=O)[C@@H]2C)C[C@@]1(C)OC [Example E-21] | E-21* (MIC ≤ 64 μg/mL for at least one BRD strain) | 
CCCNC[C@]1(O)[C@H](C)O[C@@H](O[C@H]2[C@H](C)[C@@H](O[C@@H]3O[C@H](C)C[C@H](NC)[C@H]3Oc3cccnc3C)[C@](C)(O)C[C@@H](C)CN[C@H](C)[C@@H](O)[C@](C)(O)[C@@H](CC)OC(=O)[C@@H]2C)C[C@@]1(C)OC [Example E-44] | E-44* (MIC ≤ 64 μg/mL for at least one BRD strain) | 
CCCNC[C@]1(O)[C@H](C)O[C@@H](O[C@H]2[C@H](C)[C@@H](O[C@@H]3O[C@H](C)C[C@H](N(C)C(=O)N(C)CCC)[C@H]3Oc3ccccc3)[C@](C)(O)C[C@@H](C)CN[C@H](C)[C@@H](O)[C@](C)(O)[C@@H](CC)OC(=O)[C@@H]2C)C[C@@]1(C)OC [Example F-11] |  | MIC for at least one BRD strain (asterisk on Ex#) [1]: F-11* (MIC ≤ 64 μg/mL for at least one BRD strain)
CCCNC[C@]1(O)[C@H](C)O[C@@H](O[C@H]2[C@H](C)[C@@H](O[C@@H]3O[C@H](C)C[C@H](N(C)C(=O)N(C)c4ccccc4)[C@H]3Oc3cccc(OCC)c3)[C@](C)(O)C[C@@H](C)CN[C@H](C)[C@@H](O)[C@](C)(O)[C@@H](CC)OC(=O)[C@@H]2C)C[C@@]1(C)OC [Example F-20] |  | MIC for at least one BRD strain (asterisk on Ex#) [1]: F-20* (MIC ≤ 64 μg/mL for at least one BRD strain)
CCCNC[C@]1(O)[C@H](C)O[C@@H](O[C@H]2[C@H](C)[C@@H](O[C@@H]3O[C@H](C)C[C@H](NC)[C@H]3Oc3ccc(F)c(F)c3F)[C@](C)(O)C[C@@H](C)CN[C@H](C)[C@@H](O)[C@](C)(O)[C@@H](CC)OC(=O)[C@@H]2C)C[C@@]1(C)OC [Example E-55] | E-55* (MIC ≤ 64 μg/mL for at least one BRD strain) | 
CCCNC[C@]1(O)[C@H](C)O[C@@H](O[C@H]2[C@H](C)[C@@H](O[C@@H]3O[C@H](C)C[C@H](NC)[C@H]3Oc3cc(C)ccc3F)[C@](C)(O)C[C@@H](C)CN[C@H](C)[C@@H](O)[C@](C)(O)[C@@H](CC)OC(=O)[C@@H]2C)C[C@@]1(C)OC [Example E-53] | E-53* (MIC ≤ 64 μg/mL for at least one BRD strain) | 
CCCN(C[C@]1(O)[C@H](C)O[C@@H](O[C@H]2[C@H](C)[C@@H](O[C@@H]3O[C@H](C)C[C@H](NC)[C@H]3Oc3ncc(C#N)cn3)[C@](C)(O)C[C@@H](C)CN[C@H](C)[C@@H](O)[C@](C)(O)[C@@H](CC)OC(=O)[C@@H]2C)C[C@@]1(C)OC)c1ncc(C#N)cn1 [Example E-122] | E-122* (MIC ≤ 64 μg/mL for at least one BRD strain) | 
CCCNC[C@]1(O)[C@H](C)O[C@@H](O[C@H]2[C@H](C)[C@@H](O[C@@H]3O[C@H](C)C[C@H](N(C)C)[C@H]3Oc3cncc(C(F)(F)F)c3)[C@](C)(O)C[C@@H](C)CN[C@H](C)[C@@H](O)[C@](C)(O)[C@@H](CC)OC(=O)[C@@H]2C)C[C@@]1(C)OC [Example E-70] | E-70* (MIC ≤ 64 μg/mL for at least one BRD strain) | 
CCCNC[C@]1(O)[C@H](C)O[C@@H](O[C@H]2[C@H](C)[C@@H](O[C@@H]3O[C@H](C)C[C@H](N(C)C)[C@H]3Oc3ccc(OC)c(OC(C)C)c3)[C@](C)(O)C[C@@H](C)CN[C@H](C)[C@@H](O)[C@](C)(O)[C@@H](CC)OC(=O)[C@@H]2C)C[C@@]1(C)OC [Example E-29] | E-29* (MIC ≤ 64 μg/mL for at least one BRD strain) | 
CCCNC[C@]1(O)[C@H](C)O[C@@H](O[C@H]2[C@H](C)[C@@H](O[C@@H]3O[C@H](C)C[C@H](NC)[C@H]3Oc3ccccc3OC(F)(F)F)[C@](C)(O)C[C@@H](C)CN[C@H](C)[C@@H](O)[C@](C)(O)[C@@H](CC)OC(=O)[C@@H]2C)C[C@@]1(C)OC [Example E-5] | E-5* (MIC ≤ 64 μg/mL for at least one BRD strain) | 
CCCNC[C@]1(O)[C@H](C)O[C@@H](O[C@H]2[C@H](C)[C@@H](O[C@@H]3O[C@H](C)C[C@H](N(C)C(=O)N(C)c4ccccc4)[C@H]3Oc3ccccc3Cl)[C@](C)(O)C[C@@H](C)CN[C@H](C)[C@@H](O)[C@](C)(O)[C@@H](CC)OC(=O)[C@@H]2C)C[C@@]1(C)OC [Example F-10] |  | MIC for at least one BRD strain (asterisk on Ex#) [1]: F-10* (MIC ≤ 64 μg/mL for at least one BRD strain)
CCCNC[C@]1(O)[C@H](C)O[C@@H](O[C@H]2[C@H](C)[C@@H](O[C@@H]3O[C@H](C)C[C@H](NC)[C@H]3Oc3ccc(F)cc3)[C@](C)(O)C[C@@H](C)CN(C)[C@H](C)[C@@H](O)[C@](C)(O)[C@@H](CC)OC(=O)[C@@H]2C)C[C@@]1(C)OC [Example E-153] |  | IC50 (TNF-α): 21 µM; IL-1ß OS of LPS (IL-1β): 16 µM; IC50 (IL-6): 18 µM
